The results in this text go back to US11576979B2, “Pyrrolobenzodiazepine prodrugs and antibody conjugates thereof” (GENENTECH, INC., priority 2016, dated 2023).

The term IC50 denotes the concentration needed to halve the response being measured.

Structures are written as SMILES. Where two headings read alike, the source gives them in different places.

Common to all, as to format: cell-based
One assay deals with KPL-4. Nature of the assay: CELLTITER GLO cell proliferation assay (Example 6). The conditions noted are these: data in parenthesis = repeat evaluations, read-out: IC50 potency KPL-4. The method, boiled down: (§1)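 Cells seeded at about 8000 (WSU-DLCL2) or 4000 (KPL-4) per well in RPMI-1640 with 10% FBS, 2 mM glutamine, 50 uM cystine and 0.015 g/L L-methionine; 10-point 1:3 dose-response in triplicate, cultured at 37° C., 5% CO2. Viability read by CellTiter-Glo luminescence, normalized to no-compound minus no-cell controls.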
A general note: ATP-based viability assays read luminescence as a measure of living cells.

In another assay the test system is WSU-DLCL2. Nature of the assay: CELLTITER GLO cell proliferation assay (Example 6). The conditions noted are these: data in parenthesis = repeat evaluations, read-out: IC50 potency WSU-DLCL2. In outline:
as §1

The next assay relates to WSU Cell line. Nature of the assay: Cell viability, DTD-activated quinone prodrugs (Example 15). The conditions noted are these: WSU Cell line (low DTD); Table 10; read-out: IC50 Potency. On the procedure: (§2) The toxicity of PBD dimer diaphorase prodrug 1, PBD monomer diaphorase prodrug 2, PBD dimer control 1 and PBD monomer control 1 were evaluated against KPL-4 and WSU cell lines for cell viability. The KPL-4 cell line is was a high DTD cell line characterized by NQO1 nRPKM of 839 and the WSU cell line was a low DTD cell line characterized by a NQO1 nRPKM of 1.36. The IC50 ratios are based on the prodrug IC50 value relative to the PBD dimer control.

In another assay the test system is KPL-4 Cell line. Described as above. The conditions noted are these: KPL4; KPL-4 Cell line (high DTD); Table 10; read-out: IC50 Potency. On the procedure: as §2
In another assay the test system is SK-BR-3. Nature of the assay: CellTiter-Glo toxicity, 3 days (Example 7). The conditions noted are these: Homo sapiens, SK-BR-3, 72 h; 3 days; read-out: SK-BR-3 IC50. In outline: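 HER2-positive breast cancer cells seeded at 7,500 per well, then exposed next day to a 1:3 serial dilution of compounds in DMEM+10% FBS with 2 mM L-glutamine at 37 Celsius for 3 days. Viability read by CellTiter-Glo luminescence.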

The next assay deals with A2058. The assay can be described thus: CellTiter-Glo toxicity, 4 days (Example 9). The conditions noted are these: Homo sapiens, A2058, 96 h, 4 days of drug incubation; Table 7A. In outline:
(§3)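 Cells were seeded in 384-well plates, dosed 24 h later and incubated with drug for 4 days. Viability was read as ATP luminescence by CellTiter-Glo and normalised to untreated controls. IC50 is the concentration giving 50% of maximum cell killing.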

Another assay deals with Igrov-1. Nature of the assay: CellTiter-Glo toxicity, 4 days (Example 9). The conditions noted are these: Homo sapiens, IGROV-1, 96 h, 4 days of drug incubation; Table 7A. The method, boiled down: as §3
In a further assay the test system is UACC-257. The assay can be described thus: CellTiter-Glo toxicity, 4 days (Example 9). The conditions noted are these: Homo sapiens, UACC-257, 96 h, 4 days of drug incubation; Table 7A. The method, boiled down: as §3

Regarding `C=C1C[C@H]2C=Nc3cc(OC)c(OC)cc3C(=O)N2C1` [PBD monomer control 1, reference compound], the IC50 with KPL-4 (KPL4, Table 4) was 330 nM; in the assay with KPL-4 (Table 4), 241 nM; in the assay with WSU-DLCL2 (Homo sapiens, WSUDLCL2, Table 4), 106 nM; in the assay with WSU-DLCL2 (Table 4), 109 nM; with WSU Cell line it was 106 nM; with KPL-4 Cell line, 330 nM. For the same compound, the IC50 in the assay with SK-BR-3 was 124 nM; in the assay with A2058 it was 56.9 nM; with Igrov-1, 68.5 nM; with UACC-257, 181 nM.
